Drawing on US20020132812A1, “Oral hypoglycaemic agents” (priority 2000, published 2002), this text covers melting point for 10 compounds.

Where a name gives a salt, the structure may show the parent alone.

A word on the melting point: it is the temperature, or range, at which the solid turns liquid. As for `OCc1cccc(C(CC2=NCCN2)c2ccccn2)c1` (stereo not shown) (as salt: fumarate) [Example 35, 3-[2-(4,5-Dihydro-1H-imidazol-2-yl)-1-pyridin-2-yl-ethyl]-phenyl-methanol], the melting point was 114 to 115 °C.

In the case of `Nc1cc2c(c(C(CC3=NCCN3)c3ccccn3)c1)OCC2` (stereo not shown) [Example 41, 7-[2-(4,5-Dihydro-1H-imidazol-2-yl)-1-pyridin-2-yl-ethyl]-2,3-dihydro-benzofuran-5-ylamine], the melting point fell in the range of 143 to 144 °C. In turn, `O=Cc1cccc(C(CC2=NCCN2)c2ccccn2)c1` (stereo not shown) (as salt: fumarate) [Example 34, 3-[2-(4,5-Dihydro-1H-imidazol-2-yl)-1-pyridin-2-yl-ethyl]-benzaldehyde] came in with a melting point of 138 to 139 °C. In turn, `Nc1cccc(C(CC2=NCCN2)c2ccccn2)c1` (stereo not shown) (as salt: fumarate) [Example 39, 3-[2-(4,5-Dihydro-1H-imidazol-2-yl)-1-pyridin-2-yl-ethyl]-phenylamine] had a melting point of 154 to 155 °C. Compound `FC(F)(F)c1cccc(C(CC2=NCCN2)c2ccc3ccccc3n2)c1` (stereo not shown) [Example 38, ethyl compound, 2-[2-(4,5-Dihydro-1H-imidazol-2-yl)-1-(3-trifluoromethyl-phenyl)-ethyl]-quinoline] came in with a melting point of 92 to 93 °C. The same measure for `FC(F)(F)c1cccc(/C(=C/C2=NCCN2)c2ccc3ccccc3n2)c1` [Example 38, vinyl compound, 2-[2-(4,5-Dihydro-1H-imidazol-2-yl)-1-(3-trifluoromethyl-phenyl)-vinyl]-quinoline]: 76.5 °C. As to `c1ccc(C(CC2=NCCN2)c2cccc(C3OCCO3)c2)nc1` (stereo not shown) (as salt: fumarate) [Example 33, 2-[2-(4,5-Dihydro-1H-imidazol-2-yl)-1-(3-[1,3]dioxolan-2-yl-phenyl)ethyl]pyridine], the melting point lay in the range of 162 to 162.5 °C.

In the case of `C(/C1=NCCN1)=C(/c1cccc(C2OCCO2)c1)c1ccccn1` (as salt: fumarate) [Example 32, 2-[2-(4,5-Dihydro-1H-imidazol-2-yl)-1-(3-[1,3]dioxolan-2-yl-phenyl)-vinyl]-pyridine], the melting point lay in the range of 98 to 98.5 °C. Regarding `Oc1cc2c(c(C(CC3=NCCN3)c3ccccn3)c1)OCC2` (stereo not shown) (as salt: hydroiodid) [Example 30, 7-[2-(4,5-Dihydro-1H-imidazol-2-yl)-1-pyridin-2-yl-ethyl]-2,3-dihydro-benzofuran-5-ol], the melting point was in the range of 186 to 187 °C. For `c1ccc(C(CC2=NCCN2)c2cccc3c2OCC3)nc1` (stereo not shown) (as salt: fumarate) [Example 40, 1-(2,3-Dihydro-7-benzofuranyl)-2-(4,5-dihydro-2-imidazolyl)-1-(2-pyridyl)-ethane], the melting point was 166 to 167 °C.
